Inhibition and EC50 data for 19 compounds are collected here from US20250042911A1, “NOVEL BENZOPYRAN DERIVATIVE AND USE THEREOF” (SPARK BIOPHARMA, INC, priority 2021, published 2025).

This assay concerns human M2 macrophages. The experiment in a line: Inhibition of human M2 macrophage activity, hCCL22 in culture supernatant by ELISA. Conditions: for inhibition at 10 µM / inhibition at 5 µM: Macrophage, 72 hours; for inhibition at 10 µM: hCCL22 inhibitory activity at 10 μM; for EC50: hCCL22 secretion, THP-1 derived M2-like macrophages, compound present during 72 hours of differentiation; for inhibition at 5 µM: hML22 inhibitory activity at 5 μM. In kind it is cell-based. The method, then: To obtain human M2 macrophages, human monocytes (THP-1 monocyte, CD4 expression) were stabilized in a 96-well plate for 24 hours and then incubated in culture media containing 100 ng/mL phorbal 12-myristate-13-acetate (PMA; Sigma, P8139) for 24 hours to differentiate into M0 macrophages (macrophage-like phenotype). It was confirmed that differentiated M0 macrophages had reduced CD4 expression and expressed CD11b. M0 macrophages in the plate well were washed once with culture media and incubated in culture media containing 25 ng/mL hIL-4 (Peprotech, 200-04-50) and 25 ng/mL hIL-13 (Peprotech, 200-13-50) for 72 hours to differentiate into M2-like macrophages. Test compounds were diluted by concentration in M2 differentiation media and treated simultaneously during a differentiation period of 72 hours. The inhibitory effect of the test compounds on M2 macrophages was determined by measuring hCCL22 in the medium culture supernatant cultured for 72 hours using an ELISA assay (R&D system, DMD00). The results of the activity measurements are represented in Table 3 (EC50), Table 4 ([…] inhibitory activity at 5 μM) and Table 5 (hCCL22 inhibitory activity at 10 μM).
A general note: ELISA stands for enzyme-linked immunosorbent assay.

As usually defined, the inhibition is the percentage by which the read-out fell short of the control. Lower therefore signals a weak effect. In the case of `O=c1n(-c2ccccc2)c(=O)n2n1CC=C1C2c2ccc(O)cc2OC1(CF)CF` (centres unmarked) [Example 1, 7,7-bis(fluoromethyl)-10-hydroxy-2-phenyl-5,12b-dihydro-1H,7H-chromeno[4,3-c][1,2,4]triazolo[1,2-a]pyridazine-1,3(2H)-dione], the inhibition at 10 µM was 80.4%. Consider `CC(=O)c1ccc(-n2c(=O)n3n(c2=O)C2C(=CC3)C(CF)(CF)Oc3cc(O)ccc32)cc1` (centres unmarked) [Example 2, 2-(4-acetylphenyl)-7,7-bis(fluoromethyl)-10-hydroxy-5,12b-dihydro-1H,7H-chromeno[4,3-c][1,2,4]triazolo[1,2-a]pyridazine-1,3(2H)-dione], for which testing at 10 µM gave an inhibition of 64.4%. Take `CC(=O)Nc1ccc2c(c1)OC(C)(C)C1=CCn3c(=O)n(-c4ccc(C(C)=O)cc4)c(=O)n3C12` (centres unmarked) [Example 3, N-(2-(4-acetylphenyl)-7,7-dimethyl-1,3-dioxo-2,3,5,12b-tetrahydroxy-1H,7H-chromeno[4,3-c][1,2,4]triazolo[1,2-a]pyridazin-10-yl)acetamide]: testing at 10 µM gave an inhibition of 16.9%.

For the compound `CC(=O)c1ccc(-n2c(=O)n3n(c2=O)C2C(=CC3)C(C)(C)Oc3cc(S(C)(=O)=O)ccc32)cc1` (centres unmarked) [Example 4, 2-(4-acetylphenyl)-7,7-dimethyl-10-(methylsulfonyl)-5,12b-dihydro-1H,7H-chromeno[4,3-c][1,2,4]triazolo[1,2-a]pyridazine-1,3(2H)-dione], the inhibition at 10 µM amounted to 51.9%. Compound `CC(=O)c1ccc(-n2c(=O)n3n(c2=O)C2C(=CC3)C(C)(C)Oc3cc(NS(C)(=O)=O)ccc32)cc1` (centres unmarked) [Example 5, N-(2-(4-acetylphenyl)-7,7-dimethyl-1,3-dioxo-2,3,5,12b-tetrahydro-1H,7H-chromeno[4,3-c][1,2,4]triazolo[1,2-a]pyridazin-10-yl)methanesulfonamide] gave an inhibition at 10 µM of 42.3%. The term EC50 denotes the midpoint of the concentration-response curve. Low values mean an effect from little substance, high ones a need for much substance. As for `CC(=O)c1ccc(-n2c(=O)n3n(c2=O)C2C(=CC3)C(C)(C)Oc3cc(N)ccc32)cc1` (centres unmarked) [Example 7, 2-(4-acetylphenyl)-10-amino-7,7-dimethyl-5,12b-dihydro-1H,7H-chromeno[4,3-c][1,2,4]triazolo[1,2-a]pyridazine-1,3(2H)-dione], the inhibition at 10 µM was found to be 83.4% and the EC50 amounted to 4.5 µM. Compound `CC(=O)c1ccc(-n2c(=O)n3n(c2=O)C2C(=CC3)C(C)(C)Oc3cc(N4CCOCC4)ccc32)cc1` (centres unmarked) [Example 8, 2-(4-acetylphenyl)-7,7-dimethyl-10-morpholino-5,12b-dihydro-1H,7H-chromeno[4,3-c][1,2,4]triazolo[1,2-a]pyridazine-1,3(2H)-dione] showed an inhibition at 10 µM of 60.7%. Same read-out and setting: to `CC(=O)c1ccc(-n2c(=O)n3n(c2=O)C2C(=CC3)C(C)(C)Oc3cc(NS(N)(=O)=O)ccc32)cc1` (centres unmarked) [Example 9, N-(2-(4-acetylphenyl)-7,7-dimethyl-1,3-dioxo-2,3,5,12b-tetrahydro-1H,7H-chromeno[4,3-c][1,2,4]triazolo[1,2-a]pyridazin-10-yl)sulfuric diamide] belongs 74.8%. Take `CC(=O)c1ccc(-n2c(=O)n3n(c2=O)C2C(=CC3)C(C)(C)Oc3c2cc(Br)c(O)c3Br)cc1` (centres unmarked) [Example 10, 2-(4-acetylphenyl)-9,11-dibromo-10-hydroxy-7,7-dimethyl-5,12b-dihydro-1H,7H-chromeno[4,3-c][1,2,4]triazolo[1,2-a]pyridazine-1,3(2H)-dione]: the inhibition at 10 µM came to 98.4%. Compound `CC(=O)c1ccc(-n2c(=O)n3n(c2=O)C2C(=CC3)C(C)(C)Oc3c2cc(Cl)c(O)c3Cl)cc1` (centres unmarked) [Example 11, 2-(4-acetylphenyl)-9,11-dichloro-10-hydroxy-7,7-dimethyl-5,12b-dihydro-1H,7H-chromeno[4,3-c][1,2,4]triazolo[1,2-a]pyridazine-1,3(2H)-dione] came in with an inhibition at 10 µM of 78.1%. The same measure, in the same setting: to `CC1(C)Oc2cc(O)ccc2C2C1=CCn1c(=O)n(-c3cccc(F)n3)c(=O)n12` (centres unmarked) [Example 12, 2-(6-fluoropyridin-2-yl)-10-hydroxy-7,7-dimethyl-5,12b-dihydro-1H,7H-chromeno[4,3-c][1,2,4]triazolo[1,2-a]pyridazine-1,3(2H)-dione] belongs 16.8%. For the compound `CCNc1ccc2c(c1)OC(C)(C)C1=CCn3c(=O)n(-c4ccc(C(C)=O)cc4)c(=O)n3C12` (centres unmarked) [Example 16, 2-(4-acetylphenyl)-10-(ethylamino)-7,7-dimethyl-5,12b-dihydro-1H,7H-chromeno[4,3-c][1,2,4]triazolo[1,2-a]pyridazine-1,3(2H)-dione], 10 µM produced 79.9% inhibition and the EC50 stood at 4 µM. In the case of `CC(=O)c1ccc(-n2c(=O)n3n(c2=O)C2C(=CC3)C(C)(C)Oc3cc(NCC(F)(F)F)ccc32)cc1` (centres unmarked) [Example 17, 2-(4-acetylphenyl)-7,7-dimethyl-10-((2,2,2-trifluoroethyl)amino)-5,12b-dihydro-1H,7H-chromeno[4,3-c][1,2,4]triazolo[1,2-a]pyridazine-1,3(2H)-dione], a half-maximal response (EC50) required 8.2 µM. On to `CC(=O)c1ccc(-n2c(=O)n3n(c2=O)C2C(=CC3)C(C)(C)Oc3cc(N4CCN(C(C)=O)CC4)ccc32)cc1` (centres unmarked) [Example 19, 2-(4-acetylphenyl)-10-(4-acetylpiperazin-1-yl)-7,7-dimethyl-5,12b-dihydro-1H,7H-chromeno[4,3-c][1,2,4]triazolo[1,2-a]pyridazine-1,3(2H)-dione], for which testing at 10 µM gave an inhibition of 18.8%. Compound `CC(=O)c1ccc(-n2c(=O)n3n(c2=O)C2C(=CC3)C(C)(C)Oc3cc(O)c(OC(F)(F)F)cc32)cc1` (centres unmarked) [Example 25, 2-(4-acetylphenyl)-10-hydroxy-7,7-dimethyl-11-(trifluoromethoxy)-5,12b-dihydro-1H,7H-chromeno[4,3-c][1,2,4]triazolo[1,2-a]pyridazine-1,3(2H)-dione] yielded an inhibition at 5 µM of 42%.

Compound `CC(=O)c1ccc(-n2c(=O)n3n(c2=O)C2C(=CC3)C(C)(C)Oc3c2cc(F)c(O)c3F)cc1` (centres unmarked) [Example 27, 2-(4-acetylphenyl)-9,11-difluoro-10-hydroxy-7,7-dimethyl-5,12b-dihydro-1H,7H-chromeno[4,3-c][1,2,4]triazolo[1,2-a]pyridazine-1,3(2H)-dione] had an inhibition at 5 µM of 29.9%. The same measure, in the same setting: as for `CC(=O)c1ccc(-n2c(=O)n3n(c2=O)C2C(=CC3)C(C)(C)Oc3c2cc(Br)c(N)c3Br)cc1` (centres unmarked) [Example 28, 2-(4-acetylphenyl)-10-amino-9,11-dibromo-7,7-dimethyl-5,12b-dihydro-1H,7H-chromeno[4,3-c][1,2,4]triazolo[1,2-a]pyridazine-1,3(2H)-dione], the figure is 71.2%.

Take `CC(=O)c1ccc(-n2c(=O)n3n(c2=O)C2C(=CC3)C(C)(C)Oc3cc(NC(C)C)ccc32)cc1` (centres unmarked) [Example 29, 2-(4-acetylphenyl)-10-(isopropylamino)-7,7-dimethyl-5,12b-dihydro-1H,7H-chromeno[4,3-c][1,2,4]triazolo[1,2-a]pyridazine-1,3(2H)-dione]: the inhibition at 10 µM came out at 95.2% and the response was half-maximal at 3.3 µM (EC50). Compound `CC(=O)c1ccc(-n2c(=O)n3n(c2=O)C2C(=CC3)C(C)(C)Oc3cc(NC(C)(C)C)ccc32)cc1` (centres unmarked) [Example 30, 2-(4-acetylphenyl)-10-(tert-butylamino)-7,7-dimethyl-5,12b-dihydro-1H,7H-chromeno[4,3-c][1,2,4]triazolo[1,2-a]pyridazine-1,3(2H)-dione] gave an inhibition at 10 µM of 97.3% and an EC50 of 4.3 µM.
